In patent US20230011652A1, “COMPOUNDS AND COMPOSITIONS FOR TREATING CONDITIONS ASSOCIATED WITH NLRP ACTIVITY” (Novartis AG, priority 2018, published 2023):

Assays:
[1] = system: IL-1β production in PMA-differentiated THP-1 cells; assay: IL-1β production in PMA-differentiated THP-1 cells stimulated with gramicidin (hTHP-1 assay, 2% fetal bovine serum); type: cell-based; conditions: Homo sapiens, average, read-out: hTHP-1 IC50 (Average IC50 of compounds in hTHP-1 assay)
Procedure: Procedure 1: IL-1β production in PMA-differentiated THP-1 cells stimulated with Gramicidin.
THP-1 cells were purchased from the American Type Culture Collection and sub-cultured according to instructions from the supplier. Prior to experiments, cells were cultured in complete RPMI 1640 (containing 10% heat inactivated FBS, penicillin (100 units/ml) and streptomycin (100 μg/ml)), and maintained in log phase prior to experimental setup. Prior to the experiment THP-1 were treated with PMA (Phorbol 12-myristate 13-acetate) (20 ng/ml) for 16-18 hours. Compounds were dissolved in dimethyl sulfoxide (DMSO) to generate a 30 mM stock. On the day of the experiment the media was removed and adherent cells were detached with trypsin for 5 minutes. Cells were then harvested, washed with complete RPMI 1640, spun down, resuspended in RPMI 1640 (containing 2% heat inactivated FBS, penicillin (100 units/ml) and streptomycin (100 μg/ml). The cells were plated in a 384-well plate at a density of 50,000 cells/well (final assay volume 50 μl). Compounds were first dissolved in assay medium to obtain a 5× top concentration of 500 μM. 10 step dilutions (1:3) were then undertaken in assay medium containing 1.67% DMSO. 5× compound solutions were added to the culture medium to achieve desired final concentration (e.g. 100, 33, 11, 3.7, 1.2, 0.41, 0.14, 0.046, 0.015, 0.0051, 0.0017 μM). Final DMSO concentration was at 0.37%. Cells were incubated with compounds for 1 hour and then stimulated with gramicidin (5 μM) (Enzo) for 2 hours. Plates were then centrifuged at 340 g for 5 min. Cell free supernatant (40 μL) was collected using a 96-channel PlateMaster (Gilson) and the production of IL-1β was evaluated by HTRF (cisbio). A vehicle only control and a dose titration of CRID3 (100-0.0017 μM) were run concurrently with each experiment. Data was normalized to vehicle-treated samples (equivalent to 0% inhibition) and CRID3 at 100 μM (equivalent to 100% inhibition).
(§1) 1.1 Cell Culture • 1) Culture THP-1 cells in the complete RPMI-1640 medium with 10% FBS at 37° C., 5% CO2. • 2) Passage the cells every 3 days by inoculating 3×10^5 cells per ml.
(§2) 1.2 Compound Preparation • Prepare the 3-fold serial dilution of the compounds with DMSO in a 384-well LDV Microplate using TECAN EVO system to generate the compound source plate with 10 concentrations. Top concentration is 30 mM.
(§3) 1.3 Cell Preparation • 1) Centrifuge THP-1 cells at 350 g for 5 min. • 2) Re-suspend cells with complete RMPI-1640 medium, and count cells. • 3) Seed cells in T225 flask, about 2.5×10^7 per flask, treat cells with 20 ng/ml PMA (final DMSO concentration<1%). • 4) Incubate overnight.
1.4 THP-1 Stimulation • 1) Wash adherent THP-1 cells with PBS, and detach cells with 4 ml trypsin for T225 flask. • 2) Centrifuge cells at 350 g for 5 min, re-suspend cells with RPMI-1640 containing 2% FBS and count cells with trypan blue. • 3) Transfer 50 nl/well the serial dilution of test compound to 384-well plate by Echo; For the high control and first point of CRID3 (MCC950), transfer 165 nl, then backfill to make the DMSO concentration is consistent in all wells, the plate layout is as below. • 4) Seed 50k cells in 40 ul RPMI-1640 with 2% FBS per well in 384-well plate. • 5) Incubate for 1 h at 37′C, 5% CO2. • 6) Prepare 5× gramicidin, add 10 μl per well, the final concentration is 5 μM, incubate for 2 hrs at 37° C., 5% CO2. • 7) Centrifuge at 350 g for 1 min. • 8) Pipet 16 μl supernatant by apricot, and transfer into white 384 proxiplate. FIG. 3 depicts the layout of the plates: HC: 100 μM CRID3 (MCC950)+5 μM gramicidin LC: 5 μM Gramicidin.
1.5 IL-1β detection • 1) Homogenize the 5× diluent #5 with a vortex and add 1 volume of stock solution in 4 volumes of distilled water. • 2) Thaw 20× stock solution of anti-IL1β-Cryptate-antibody and anti-IL1β XL-antibody. […]

[2] = system: IL-1β production in PMA-differentiated THP-1 cells; assay: hTHP-1 assay containing 10% fetal bovine serum (IL-1β production, gramicidin stimulation); type: cell-based; conditions: Homo sapiens, Table 4, average, read-out: hTHP-1 IC50 in 10% FBS (Average IC50 of compounds in hTHP-1 assay)
Procedure: as §1, §2, §3
FIG. 3 depicts the layout of the plates: HC: 100 μM CRID3 (MCC950)+5 μM gramicidin LC: 5 μM Gramicidin.
1.5 IL-1β detection • 1) Homogenize the 5× diluent #5 with a vortex and add 1 volume of stock solution in 4 volumes of distilled water. • 2) Thaw 20× stock solution of anti-IL1β-Cryptate-antibody and anti-IL1β XL-antibody. Dilute these two antibodies to 1× with detection buffer #3. • 3) Pre-mix the two ready-to-use antibody solutions just prior to use. • 4) Dispense 4 ul of pre-mixed Anti-IL1β antibodies working solution into all wells. • 5) Seal the plate and incubate overnight at 4° C. • 6) Read the cell plate using EnVison and plot Readout vs. the test compound concentration to calculate the IC50.
• 1. IC50 of compounds can be calculated using the following formulas
% inhibition=100−100×[HCave−Readout/(HCave−LCave)] Formula for IC50 • 2. Fit the normalized data in a dose-response manner using XLfit, and calculate the compound concentration.

[3] = Table 2, hTHP-1 assay containing 2% fetal bovine serum
[4] = Table 3, hTHP-1 assay containing 2% fetal bovine serum

SMILES | IC50 [1, 3] | other results
O=C(Nc1c2c(nc3c1CCC3)CCC2)NS(=O)(=O)c1cnn2c1OCCC2 [Compound 12, Sodium ((6,7-dihydro-5H-pyrazolo[5,1-b][1,3]oxazin-3-yl)sulfonyl)((1,2,3,5,6,7-hexahydrodicyclopenta[b,e]pyridin-8-yl)carbamoyl)amide] | 200 to 1000 nM | 
O=C(Nc1c2c(cc3c1CC3)CCC2)NS(=O)(=O)c1cnn2c1OCCC2 [Compound 8, N-((2,4,5,6-tetrahydro-1H-cyclobuta[f]inden-3-yl)carbamoyl)-6,7-dihydro-5H-pyrazolo[5,1-b][1,3]oxazine-3-sulfonamide] | 200 to 1000 nM | 
O=C(Nc1cc2c(c3c1CCC3)CCC2)NS(=O)(=O)c1cnn2c1OCCC2 [Compound 10, N-((1,2,3,6,7,8-hexahydro-as-indacen-4-yl)carbamoyl)-6,7-dihydro-5H-pyrazolo[5,1-b][1,3]oxazine-3-sulfonamide] | 1000 to 5000 nM | 
CC(C)n1ccc(S(=O)(=O)NC(=O)Nc2c3c(cc4c2CC4)CCC3)n1 [Compound 302, 1-Isopropyl-N-((2,4,5,6-tetrahydro-1H-cyclobuta[f]inden-3-yl)carbamoyl)-1H-pyrazole-3-sulfonamide] |  | IC50 [1, 4]: 1000 to 5000 nM
O=C(Nc1c2c(cc3c1CC3)CC2)NS(=O)(=O)c1cnn2c1OCCC2 [Compound 9, N-(tricyclo[6.2.0.03,6]deca-1,3(6),7-trien-2-ylcarbamoyl)-6,7-dihydro-5H-pyrazolo[5,1-b][1,3]oxazine-3-sulfonamide] | 40 to 200 nM | 
CCn1ccc(S(=O)(=O)NC(=O)Nc2c3c(cc4c2CC4)CCC3)n1 [Example 19, 1-Ethyl-N-((2,4,5,6-tetrahydro-1H-cyclobuta[f]inden-3-yl)carbamoyl)-1H-pyrazole-3-sulfonamide] |  | IC50 [2]: 200 to 1000 nM
O=C(Nc1c2c(nc3c1CCC31CC1)CCC2)NS(=O)(=O)c1cnn2c1OCCC2 [Compound 15, Sodium ((6,7-dihydro-5H-pyrazolo[5,1-b][1,3]oxazin-3-yl)sulfonyl)((1′,5′,6′,7′-tetrahydro-2′H-spiro[cyclopropane-1,3′-dicyclopenta[b,e]pyridin]-8′-yl)carbamoyl)amide] | 1000 to 5000 nM | 
CCn1ccc(S(=O)(=O)NC(=O)Nc2c3c(cc4c2CCC4)CCC3)n1 [Example 17, 1-Ethyl-N-((1,2,3,5,6,7-hexahydro-s-indacen-4-yl)carbamoyl)-1H-pyrazole-3-sulfonamide] |  | IC50 [2]: 1000 to 5000 nM
CCn1cc(F)c(S(=O)(=O)NC(=O)Nc2c3c(cc4c2CC4)CCC3)n1 [Example 18, 1-Ethyl-4-fluoro-N-((2,4,5,6-tetrahydro-1H-cyclobuta[f]inden-3-yl)carbamoyl)-1H-pyrazole-3-sulfonamide] |  | IC50 [2]: 200 to 1000 nM
CC(C)(O)c1coc(S(=O)(=O)NC(=O)Nc2c3c(cc4c2CC4)CCC3)c1 [Compound 301, 4-(2-Hydroxypropan-2-yl)-N-((2,4,5,6-tetrahydro-1H-cyclobuta[f]inden-3-yl)carbamoyl)furan-2-sulfonamide] |  | IC50 [1, 4]: 40 to 200 nM
CC1(C)CCc2c1nc1c(c2NC(=O)NS(=O)(=O)c2cnn3c2OCCC3)CCC1 [Compound 14] | 1000 to 5000 nM | 
CC1CCc2c1nc1c(c2NC(=O)NS(=O)(=O)c2cnn3c2OCCC3)CCC1 (stereo not drawn) [Compound 13, Sodium ((6,7-dihydro-5H-pyrazolo[5,1-b][1,3]oxazin-3-yl)sulfonyl)((3-methyl-1,2,3,5,6,7-hexahydrodicyclopenta[b,e]pyridin-8-yl)carbamoyl)amide] | 200 to 1000 nM | 
Cc1c(C2CC2)nc2c(c1NC(=O)NS(=O)(=O)c1cnn3c1OCCC3)CCC2 [Compound 16, Sodium ((2-cyclopropyl-3-methyl-6,7-dihydro-5H-cyclopenta[b]pyridin-4-yl)carbamoyl)((6,7-dihydro-5H-pyrazolo[5,1-b][1,3]oxazin-3-yl)sulfonyl)amide] | 1000 to 5000 nM | 
CCn1cc(F)c(S(=O)(=O)NC(=O)Nc2c3c(cc4c2CCC4)CCC3)n1 [Example 16, 1-Ethyl-4-fluoro-N-((1,2,3,5,6,7-hexahydro-s-indacen-4-yl)carbamoyl)-1H-pyrazole-3-sulfonamide] |  | IC50 [2]: 200 to 1000 nM

Second part, led by results:

IC50 [1, 3] | SMILES | other results
5000 to 30000 nM | O=C(Nc1c2c(cc3c1CCC3)CCC2)NS(=O)(=O)c1cnn2c1OC[C@H](OC(=O)Nc1c3c(cc4c1CCC4)CCC3)C2 [Compound 403, (R)-3-(N-((1,2,3,5,6,7-hexahydro-s-indacen-4-yl)carbamoyl)sulfamoyl)-6,7-dihydro-5H-pyrazolo[5,1-b][1,3]oxazin-6-yl (1,2,3,5,6,7-hexahydro-s-indacen-4-yl)carbamate] | 
200 to 1000 nM | C[C@@H]1CCc2c1nc1c(c2NC(=O)NS(=O)(=O)c2cnn3c2OCCC3)CCC1 [Compound 404] | 
< 8 nM | CN[C@H]1COc2c(S(=O)(=O)NC(=O)Nc3c4c(cc5c3CC5)CCC4)cnn2C1 [Compound 401, (R)-6-(methylamino)-N-((2,4,5,6-tetrahydro-1H-cyclobuta[f]inden-3-yl)carbamoyl)-6,7-dihydro-5H-pyrazolo[5,1-b][1,3]oxazine-3-sulfonamide] | 
40 to 200 nM | O=C(Nc1c2c(cc3c1CC3)CCC2)NS(=O)(=O)c1cnn2c1OC[C@H](O)C2 [Compound 402, (R)-6-hydroxy-N-((2,4,5,6-tetrahydro-1H-cyclobuta[f]inden-3-yl)carbamoyl)-6,7-dihydro-5H-pyrazolo[5,1-b][1,3]oxazine-3-sulfonamide] | 
